The subject of one series is nuclear DNA. In words: Platinum adducts by ICP-MS in PBMCs from patients (carboplatin + talazoparib phase 1). In kind it is in vivo. Here is the method:
Carboplatin and platinum adducts were determined in a limited number of blood samples from a previously presented phase 1 clinical trial (NCT02358200). […] In the case of grade 3 or grade 4 toxicity, carboplatin and/or talazoparib doses were held until below grade 1 and resumed at a lower dose level. Blood samples were obtained from a limited number of patients during cycle 1 day 1 (prior to talazoparib dosing) and cycle 2 day 1 pre-dose and up to 24 h post dose, and PBMCs were derived at day 15 post dose, DNA was extracted as described in Additional file 1d and platinum adducts were quantified by ICP-MS (Additional file 1b).
The platinum adduct formation in PBMCs in 19 patients was linked to carboplatin concentrations in plasma using the Eq 1. […] In this model, we tested the hypothesis that PARPi interact with platinum formation. […] The formation of adducts correlated with the number of lymphocytes (P < 0.0001) and the gBRCA mutation status (P < 0.0001). […]
b). Technical aspects of the ICP-MS method development.
PBMCs were extracted from whole blood using by centrifugation. Lysis of red blood cells was performed as needed, then PMBCs were washed and resuspended in A limited number of 5-15 mL heparinised or EDTA whole blood samples from the PK study talazoparib/carboplatin phase 1 study were included. Following centrifugation for 15 min at 1,000 g, plasma was extracted and the PBS was added to a total volume of 9.5 ml to the remaing fraction. PMBCS were extracted using density-gradient centrifugation with Ficoll-Paque Plus® (Pharmacia, Uppsala, Sweden) at room temperature for 20 min at 400 g. PBMCs were washed twice with ice-cold PBS and centrifuged at 800 G for 5 minustes at 4 °C. Cells were counted and ther resuspended in 1 mL buffer containing 10 mmol L−1 Tris- HCl, 2.3% (w/v) NaCl, and 2 mmol L−1 EDTA disodium salt at pH 7.3.
DNA extraction procedure:
The DNA extraction was based on previous publications. 4 In short, 44 μL 1 mol L −1 NH4HCO3, 20 μL 20% (w/v) SDS, and 6 μL 1% (w/v) proteinase K solution were added successively, and incubated for 24hours using a thermomixer. After the digestion was complete, 146 μL saturated 6 mol L−1 NaCl was added to each tube and the tubes were shaken vigorously to precipitate proteins. The tubes were centrifuged for 10min at 2000 g and the supernatant containing the DNA was transferred to another tube. Subsequently, the supernatant was shaken, centrifuged, and transferred to another tube. Following this, 1.5ml absolute ethanol was added to precipitate the DNA and centrifuged from 30 minutes at 21 Kg at 4°C. The DNA was washed twice with 75% ethanol and was subsequently dissolved in 30 μL water. DNA concentrations were analyzed by measuring the absorbance at 260 nm using Nanodrop 1000 spectophotometer (NanoDrop).
Carboplatin adduct quantification:
The quantity of the carboplatin-adducts per mg DNA was quantified (Figure S8) using a previously validated […]
Figure S8: Example graph of mass spectrum of platinum in DNA extraction by ICP-MS.
(1 picture or pasted object on this page, not shown here)
Supplementary Table 2: PK patients estimates carboplatin and platinum adducts Structural model PK Estimat RS
Inter-individual variability on Platinum adduct formation (RPT) 317% proportional residual error plasma carboplatin 28% 26 […]
proportional residual error adduct formation 110% 6%
Platinum adduct formation:
CL=clearance, V=volume of distribution, KA= rate of absorption, RPT= ratio of carboplatin adduct formation, KPT= rate of carboplatin adduct formation, gBRCA = germline BRCA carrier […]
(also on this page, place not known: ( )adductsC−×× plasmaCRPT KPT=dt dCadducts)

The next series relates to MDA-MB-436. Conditions: MDA-MB-436, BRCA1-mutated; ref [23], [25]; cited from earlier work.
For another series, the system named is MDA-MB-231. Also noted: method as in PMID 21633166, PMID 21707865. Conditions: ref [23], [25]; cited from earlier work.
Series [1] can be described thus: Veliparib spatial distribution by MALDI-MSI in TNBC xenograft tumor and muscle sections. It is filed as in vivo, beige SCID mice. The method, then:
Thirty-nine mice were euthanized approximately 3 h after the last dose of veliparib and 24 h after the last dose of carboplatin; two mice used in the DCE-MRI pilot were euthanized 1.5 h after single-dose administration of veliparib and carboplatin (Fig. 1). Bilateral xenograft tumors and liver and muscle (quadriceps) tissues were harvested. Tissues were cut into three pieces and either embedded in optimum cutting temperature (OCT) formulation or were directly snap frozen in liquid-nitrogen-cooled isopentane and stored at − 80 °C until analysis. […] A separate fresh-frozen portion of each tissue per animal was ground for quantification of veliparib and carboplatin by LC-MS. […]
Heterogeneity of drug distribution of veliparib in the tissues evaluated by MALDI-MSI was assessed by comparing the relative standard deviation in the whole tissue of muscle and tumor cells, and by comparing the mean pixel intensity of each immunohistochemically (IHC)-defined region of interest capturing the whole tumor region, and regions of cellularity/necrosis using one-way ANOVA. […]
By spiking different concentrations of veliparib on placebo treated mouse TNBC xenograft tissues, a rough estimate of the detection range of veliparib was determined to be 100 fmol-100 pmol absolute drug amount, Figure S2 left) with saturation of the signal occurring above 1 nmol/ μL. […]

As to `N.N.O=C([O-])C1(C(=O)[O-])CCC1.[Pt+2]` [carboplatin], in the series with nuclear DNA (19 patients), the “RPT, ratio of adducts compared to plasma concentration” value came to 0.5%. Further, in the series with nuclear DNA (PBMCs from patients, ICP-MS), the “Median conc. (RSE %), carboplatin adducts” value is listed as 0.0552 (30%) μmol/g DNA. In the series with nuclear DNA (five gBRCA carriers), the “Ratio of adducts in PBMCs/plasma concentration” value came to 0.64%. Moreover, the “Ratio of adducts in PBMCs/plasma concentration” value in the series with nuclear DNA (nine non-carriers) came to 0.29%. The “RPT (%) carboplatin adducts, model estimate” value with nuclear DNA (non-carriers, Supplementary Table 2) is on record as 1.20%. Besides, in the series with nuclear DNA (patient PBMC samples), the Median platinum adducts worked out at 55.2 nmol/g DNA and the “Time platinum adducts remain detectable post dose” value is “up to 15 days”. Moreover, the “Median platinum adducts, equivalent per blood volume” value with nuclear DNA (patient PBMC samples, per L blood) turned out to be 81.4 pg/L. The “Inter-individual variability on platinum adduct formation (RPT)” value with nuclear DNA (patients) is 317%. Besides, in the series on nuclear DNA (patients PBMCs), the “Adduct formation, single-agent treatment at day 1 versus combination with talazoparib” value was “no statistical difference” and the “KPT, formation rate of adducts from plasma” value came out at 0.0156 L/h.
As for `C[C@]1(c2nc3c(C(N)=O)cccc3[nH]2)CCCN1` [veliparib], the Sensitivity in vitro entry with MDA-MB-436 and in the series on MDA-MB-231 was “sensitivity” throughout. The “Ion intensity tumor/muscle (RSE %)” value was 1.01 (85%) in series [1] (cellular tumors (ROI)) and 1.63 (70%) in series [1] (necrotic tumors (ROI)).

Source of the values: PMC5594551, “Heterogeneous drug penetrance of veliparib and carboplatin measured in triple negative breast tumors” (Breast Cancer Research : BCR, 2017).
